Target: T1, Free fatty acid receptor 4 (Homo sapiens, UniProt Q5NUL3)
T1 sequence (Q5NUL3 whole entry): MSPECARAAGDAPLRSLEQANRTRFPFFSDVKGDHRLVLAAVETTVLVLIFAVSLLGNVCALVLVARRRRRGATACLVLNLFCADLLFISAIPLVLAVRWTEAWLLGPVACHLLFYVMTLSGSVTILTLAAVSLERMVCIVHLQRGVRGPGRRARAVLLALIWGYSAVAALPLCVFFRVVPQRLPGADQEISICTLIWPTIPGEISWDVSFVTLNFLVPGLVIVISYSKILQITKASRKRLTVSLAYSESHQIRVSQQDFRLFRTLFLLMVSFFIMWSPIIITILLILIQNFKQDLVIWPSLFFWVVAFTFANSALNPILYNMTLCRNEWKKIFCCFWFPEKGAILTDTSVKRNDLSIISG
Test: GPR120 pERK assay: For the pERK assay, 3×10^6 cells/mL cryopreserved human and mouse cells were thawed rapidly in a 37° C. water bath and added to a T-225 flask containing 50 mL growth medium. The flasks were placed in a tissue culture incubator overnight (37° C., 5% CO2). The next day, cells were harvested with trypsin (Gibco Cat. #25300-054), resuspended in serum-containing growth medium and counted using a Cellometer and volume adjusted to a concentration of 0.5×10^6 cells/mL. Cells were plated into 384-well clear bottom tissue culture plates (BD Cat. #353962) at 50 μL/well, for a density of 25,000 cells/well using a MULTIDROP® and incubated for 16-18 hours (overnight) at 37° C. with 5% CO2. The next day, cells were washed once with 50 μL of PBS without Ca++/Mg++ (Gibco Cat. #14190-036) and serum starved in 25 μL of F-12 media without any serum or antibiotics for 2 hours at 37° C.Test compounds were 3-fold, 11-point serially diluted in DMSO in a REMP assay plate (Matrix Cat. #4307) by Tecan and 5 μL was transferred into an ECHO source plate (Labcyte Cat. #LC-0200). Cells were then stimulated with 40 nL of compound dilutions using ECHO liquid handler for 7 min at 37° C. […]

| EC50 [µM] | Compound |
| --- | --- |
| 6.84 | O=C(O)C1CC1COc1ccc(-c2ccccc2-c2ccccc2)cc1 (configuration not stated) |
| 1.7 | O=C(O)C1CC1COc1ccc(-c2cccc(-c3ccccc3)c2)cc1 (configuration not stated) |
